# Source: patent publication US20250332112A1, “IONIZABLE CATIONIC LIPIDS FOR LIPID NANOPARTICLES” (GENEVANT SCIENCES GMBH, priority 2022, published 2025)
# How the values were obtained:
# [1] = system: EGFP expression in the liver; experiment: EGFP expression in liver after intravenous EGFP mRNA LNP (ELISA); details: 0.5 mg/kg IV, 24 h post-IV administration, BALB/c mice (n = 4)
# Experimental: LNP formulations encapsulating enhanced green fluorescent protein mRNA were injected intravenously at 0.5 mg/kg to female BALB/c mice (6-8 weeks old). On day of injection, the LNP stocks were filtered and diluted to the required dosing concentration with phosphate buffered saline. At 24 hours post-administration, animals were anaesthetized with a lethal dosage of ketamine/xylazine. Liver samples (left lateral lobe) were collected, weighed, and flash frozen in liquid nitrogen. Liver samples were stored in FastPrep® tubes at −80° C. until analyzed for EGFP expression.
# Liver homogenates were prepared in cell extraction buffer, diluted, and analyzed for EGFP protein levels using ELISA, according to manufacturer's instructions (Abcam, GFP ELISA Kit).
# [2] = Lipid clearance from liver over time after human OTC mRNA LNP (LC-MS); assay type: in vivo; details: IV 0.5 mg/kg human OTC mRNA LNP, male C57BL/6 mice (n = 4)
# Experimental: LNP formulations encapsulating ornithine transcarbamylase mRNA were injected intravenously at the specified dose levels to male C57BL/6 mice (6-8 weeks old).
# (§1) Liver tissues were treated with PBS and homogenized with a FastPrep machine, 3 cycles of 5 m/s×15 s. Homogenates from the PBS-treated control animals was pooled and used for standard curve preparation. Samples were extracted into a deep well plate with 250 μL of an internal suitability standard. Plates were centrifuged for 15 min at 4° C. and 2000 rpm. Analysis was performed using an Agilent 6520 QTOF coupled to an Agilent 1290 UHPLC, using reverse-phase LC separation. Quantitation of the ionizable lipid was by MS/MS against a calibration curve spiked into appropriately matched blank matrix. Calibration used a similar class of synthetic lipid as internal standard.
# At various timepoints post-dose, lipid levels were assessed in the liver. Some novel ionizable lipids reported more rapid clearance rates compared to the benchmark (Table 19).
# [3] = Particle characteristics of LNPs containing luciferase mRNA and novel ionizable lipids; assay type: physicochemical
# Method in brief: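 LNPs made from PEG-lipid, ionizable lipid, cholesterol and phospholipid in ethanol, T-mixed with luciferase mRNA in 100 mM acetate pH 5. Products were dialysed, concentrated, and dialysed into 5 mM Tris, 10% sucrose, pH 8, then 0.2 μm filtered. mRNA was measured by RiboGreen, and size and polydispersity by dynamic light scattering on a Zetasizer.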
# [4] = Lipid clearance from liver over time after EGFP mRNA LNP (LC-MS); assay type: in vivo; details: IV 0.5 mg/kg EGFP mRNA LNP, female BALB/c mice (n = 4)
# Experimental: as §1
# At various timepoints post-dose, lipid levels were assessed in the liver. Some novel ionizable lipids reported more rapid clearance rates compared to the benchmark (Table 33).
# [5] = Parent ionizable lipid remaining in liver at 24 h after EGFP mRNA LNP (LC-MS); assay type: in vivo; details: 24 h after IV 0.5 mg/kg EGFP mRNA LNP, female BALB/c mice (n = 4)
# [6] = Particle characteristics of LNPs containing EGFP mRNA and novel ionizable lipids; assay type: physicochemical; details: EGFP mRNA LNP 1.6:54.6:32.8:10.9
# Method in brief: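 LNPs of PEG-lipid, ionizable lipid, cholesterol and phospholipid in ethanol were mixed 1:1 with mRNA in 100 mM acetate pH 5 via T-junction, diluted in PBS, dialysed, concentrated to ~0.6 mg/mL and exchanged into 5 mM Tris, 10% sucrose, pH 8. Size and polydispersity by Zetasizer; nucleic acid by RiboGreen.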
# [7] = Parent ionizable lipid remaining in liver at 6 h after luciferase mRNA LNP (LC-MS); assay type: in vivo; details: 6 h after IV 0.5 mg/kg Luciferase mRNA LNP
# [8] = Table 1, luciferase mRNA LNP 1.6:54.6:32.8:10.9
# [9] = Table 2, luciferase mRNA LNP 1.6:54.6:32.8:10.9
# [10] = Table 3, luciferase mRNA LNP 1.6:54.6:32.8:10.9
# [11] = Table 4, luciferase mRNA LNP 1.6:54.6:32.8:10.9
# [12] = Table 5, luciferase mRNA LNP 1.6:54.6:32.8:10.9
# [13] = Table 6, luciferase mRNA LNP 1.6:54.6:32.8:10.9
# [14] = Table 7, luciferase mRNA LNP 1.6:54.6:32.8:10.9
smiles,measurement,setting,value
"CCCCC/C=C\CCCC(CCC/C=C\CCCCC)C(CCC/C=C\CCCCC)OC(=O)CCCCN(C)C (centres unmarked) [Compound 13-B43, reference compound]",EGFP,[1]; Table 24,3.75E+07 pg/g liver
same,EGFP,[1]; Table 25,9.74E+04 pg/g liver
same,EGFP,[1]; Table 26,5.23E+07 pg/g liver
same,EGFP,[1]; Table 27,6.46E+07 pg/g liver
same,"Parent ionizable lipid remaining in liver, Average",[2]; 0.25 h post-dose,29.17 nmol/g liver
same,"Parent ionizable lipid remaining in liver, Average",[2]; 1 h post-dose,46.37 nmol/g liver
same,"Parent ionizable lipid remaining in liver, Average",[2]; 3 h post-dose,63.61 nmol/g liver
same,"Parent ionizable lipid remaining in liver, Average",[2]; 6 h post-dose,45.23 nmol/g liver
same,"Parent ionizable lipid remaining in liver, Average",[2]; 24 h post-dose,40.01 nmol/g liver
same,"Parent ionizable lipid remaining in liver, Average",[2]; 168 h post-dose,34.42 nmol/g liver
same,Final Product % EE,[3]; [8],94%
same,Final Product PDI,[3]; [8],0.13
same,Final Product Z-avg,"[3]; Table 1, luciferase mRNA LNP 1.6:54.6:32.8:10.9 PEG2000-C-DMA:Ionizable lipid:Cholesterol:DSPC",70 nm
same,Final Product % EE,[3]; [9],99%
same,Final Product PDI,[3]; [9],(0.03)
same,Final Product Z-avg,[3]; [9],72 nm
same,Final Product % EE,[3]; [10],99%
same,Final Product PDI,[3]; [10],0.06
same,Final Product Z-avg,[3]; [10],72 nm
same,Final Product % EE,[3]; [11],98%
same,Final Product PDI,[3]; [11],0.07
same,Final Product Z-avg,[3]; [11],72 nm
same,Final Product % EE,[3]; [12],98%
same,Final Product PDI,[3]; [12],0.06
same,Final Product Z-avg,[3]; [12],69 nm
same,Final Product % EE,[3]; [13],99%
same,Final Product PDI,[3]; [13],0.07
same,Final Product Z-avg,[3]; [13],77 nm
same,Final Product % EE,[3]; [14],98%
same,Final Product PDI,[3]; [14],0.06
same,Final Product Z-avg,[3]; [14],74 nm
same,"Parent ionizable lipid remaining in liver, Average",[4]; 0.25 h post-dose,29.8 nmol/g liver
same,"Parent ionizable lipid remaining in liver, Average",[4]; 1 h post-dose,31.2 nmol/g liver
same,"Parent ionizable lipid remaining in liver, Average",[4]; 3 h post-dose,40.2 nmol/g liver
same,"Parent ionizable lipid remaining in liver, Average",[4]; 6 h post-dose,45.2 nmol/g liver
same,"Parent ionizable lipid remaining in liver, Average",[4]; 24 h post-dose,26.4 nmol/g liver
same,"Parent ionizable lipid remaining in liver, Average",[4]; 168 h post-dose,25.6 nmol/g liver
same,"Parent ionizable lipid remaining in liver, Average",[5]; Table 28,38.48 nmol/g liver
same,"Parent ionizable lipid remaining in liver, Average",[5]; Table 29,29.77 nmol/g liver
same,"Parent ionizable lipid remaining in liver, Average",[5]; Table 30,50.86 nmol/g liver
same,"Parent ionizable lipid remaining in liver, Average",[5]; Table 31,23.9 nmol/g liver
same,Final Product % EE,[6]; Table 20,98%
same,Final Product PDI,[6]; Table 20,0.07
same,Final Product Z-avg,[6]; Table 20,75 nm
same,Final Product % EE,[6]; Table 21,97%
same,Final Product PDI,[6]; Table 21,0.08
same,Final Product Z-avg,[6]; Table 21,75 nm
same,Final Product % EE,[6]; Table 22,97%
same,Final Product PDI,[6]; Table 22,0.08
same,Final Product Z-avg,[6]; Table 22,73 nm
same,Final Product % EE,[6]; Table 23,98%
same,Final Product PDI,[6]; Table 23,0.15
same,Final Product Z-avg,[6]; Table 23,76 nm
same,"Parent ionizable lipid remaining in liver, Average","[7]; Table 16, female BALB/c mice (n = 4)",22.64 nmol/g liver
same,"Parent ionizable lipid remaining in liver, Average","[7]; Table 17, female mice (n = 4)",43.87 nmol/g liver
same,"Parent ionizable lipid remaining in liver, Average","[7]; Table 18, female BALB/c mice (n = 4)",63.32 nmol/g liver
